Where “and” joins values, the source holds several entries; their conditions need not be identical. Identical values can stand only once. Like-named read-outs stand apart in the source and are kept apart here. Residues, ends and D or L forms follow the SMILES beside them.
Assays:
[1] = biological target: T1, c-Src SH3 domain-GST fusion protein (Gallus gallus, UniProt P00523); test: Fluorescence polarization direct binding assay, c-Src SH3; parameters: species or system chicken; conditions: 50 nM fluorescently labeled ligand, PBS pH 7.4; read-out: Kd, c-Src SH3
Method: (§1) Polarization was measured by excitation with vertically polarized light at 485 nm and the fluorescence emission detected at 530 nm in both the vertical and horizontal directions. An average of five measurements were recorded for each well. Samples were equilibrated at room temperature for 25 min before analysis, a time sufficient for the binding reactions to reach equilibrium. The polarization data were fit using Kaleidagraph v3.6 software to Eq. 5, which is derived from first principles without assumptions. […] In this equation, Pobs is the observed polarization value at any given concentration of target protein (GST•SH3 domain). Pmin is the polarization of peptide^Flu at 50 nM in the absence of target protein. Pmax is the maximum polarization of peptide^Flu at saturation with target protein. Kd is the equilibrium dissociation constant. […] Free fits are shown. Kd values were estimated as described.

[2] = biological target: Fyn SH3 domain-GST fusion protein (Homo sapiens, UniProt P06241); test: Fluorescence polarization direct binding assay, Fyn SH3; conditions: 50 nM fluorescently labeled ligand, PBS pH 7.4; read-out: Kd, Fyn SH3
Sequence of Fyn SH3 domain-GST fusion protein (P06241 81-142): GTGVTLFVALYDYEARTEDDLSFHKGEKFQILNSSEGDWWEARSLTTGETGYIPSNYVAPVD
Method: (§2) Polarization was measured by excitation with vertically polarized light at 485 nm and the fluorescence emission detected at 530 nm in both the vertical and horizontal directions. An average of five measurements were recorded for each well. Samples were equilibrated at room temperature for 25 min before analysis, a time sufficient for the binding reactions to reach equilibrium. The polarization data were fit using Kaleidagraph v3.6 software to Eq. 5, which is derived from first principles without assumptions. […] In this equation, Pobs is the observed polarization value at any given concentration of target protein (GST•SH3 domain). Pmin is the polarization of peptide^Flu at 50 nM in the absence of target protein. Pmax is the maximum polarization of peptide^Flu at saturation with target protein. Kd is the equilibrium dissociation constant. […] In these cases a lower limit Kd was estimated by setting Pmax equal to the observed polarization at the highest target protein concentration tested, which was often limited by solubility. […] Free fits are shown. Kd values were estimated as described. […] In several cases, the plots of polarization versus [SH3 domain] began to increase at high [SH3 domain] (>50 micromolar), perhaps because of a second binding event. In these cases (indicated by an asterisk (*) in Table 5), data above 50 micromolar target protein was excluded during the curve fits.

[3] = biological target: Hck SH3 domain-GST fusion protein (Homo sapiens, UniProt P08631); test: Fluorescence polarization direct binding assay, Hck SH3; conditions: 50 nM fluorescently labeled ligand, PBS pH 7.4; read-out: Kd, Hck SH3
Sequence of Hck SH3 domain-GST fusion protein (P08631 77-137): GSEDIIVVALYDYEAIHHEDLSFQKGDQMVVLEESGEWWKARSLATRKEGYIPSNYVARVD
Method: as §1

[4] = biological target: Lyn SH3 domain-GST fusion protein (Homo sapiens, UniProt P07948); test: Fluorescence polarization direct binding assay, Lyn SH3; conditions: 50 nM fluorescently labeled ligand, PBS pH 7.4; read-out: Kd, Lyn SH3
Sequence of Lyn SH3 domain-GST fusion protein (P07948 62-122): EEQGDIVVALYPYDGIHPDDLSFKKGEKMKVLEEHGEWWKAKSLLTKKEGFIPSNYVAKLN
Method: as §2

[5] = biological target: Lck SH3 domain-GST fusion protein (Homo sapiens, UniProt P06239); test: Fluorescence polarization direct binding assay, Lck SH3; conditions: 50 nM fluorescently labeled ligand, PBS pH 7.4; read-out: Kd, Lck SH3
Sequence of Lck SH3 domain-GST fusion protein (P06239 62-128): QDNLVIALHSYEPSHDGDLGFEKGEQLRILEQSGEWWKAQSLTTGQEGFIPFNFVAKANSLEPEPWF
Method: as §2

[6] = biological target: c-Src SH3^P133L (Gallus gallus, UniProt P00523, P133L); test: Fluorescence polarization direct binding assay, c-Src SH3^P133L; parameters: species or system chicken; conditions: 50 nM fluorescently labeled ligand; lower limit estimated; read-out: Kd, c-Src P133L SH3
Method: as §1

[7] = biological target: non-Src family SH3 domain (Ab1, Nck1, Grb2, Abp1); test: Fluorescence polarization binding to non-Src family SH3 domains; conditions: data not shown
Method: Fluorescence polarization assays were performed with 50 nM fluorescently labeled miniature protein and the indicated SH3 domain-GST fusion protein in PBS (1 mM KH2PO4, 155 mM NaCl, 3 mM Na2HPO4 (pH 7.4)) supplemented with 1 mM DTT and using the Analyst™ AD 96·384 automated fluorescence plate reader (LjL Biosystems). Binding reactions (32 microliters) were analyzed within 384-well assay plates (Corning Inc., Plate #3654) using settings defined by Criterion Host software v.2.00.11 and z height 1 mm. Polarization was measured by excitation with vertically polarized light at 485 nm and the fluorescence emission detected at 530 nm in both the vertical and horizontal directions. An average of five measurements were recorded for each well. Samples were equilibrated at room temperature for 25 min before analysis, a time sufficient for the binding reactions to reach equilibrium. […]
In this equation, Pobs is the observed polarization value at any given concentration of target protein (GST•SH3 domain). […] The observed binding free energy, ΔG, was calculated from the relationship ΔG=−RT ln Kd^−1, where R is the universal gas constant (1.987×10^−3 kcal mol^−1 K^−1) and T is the temperature in Kelvin (298 K). Fluorescence polarization analysis of the binding of fluorescently labeled miniature proteins and Peptide 1 to c-Src SH3^P133L are shown in FIG. 11. […]

[8] = biological target: T2, Hck kinase (Homo sapiens, UniProt P08631); test: Hck kinase activation, NADH-coupled assay; type: biochemical; conditions: Activator 50 micromolar
T2 construct: His6 (N); made in house; host or cells: HighFive insect cells, co-infected with Hck and Csk baculovirus
T2 sequence (P08631 whole entry): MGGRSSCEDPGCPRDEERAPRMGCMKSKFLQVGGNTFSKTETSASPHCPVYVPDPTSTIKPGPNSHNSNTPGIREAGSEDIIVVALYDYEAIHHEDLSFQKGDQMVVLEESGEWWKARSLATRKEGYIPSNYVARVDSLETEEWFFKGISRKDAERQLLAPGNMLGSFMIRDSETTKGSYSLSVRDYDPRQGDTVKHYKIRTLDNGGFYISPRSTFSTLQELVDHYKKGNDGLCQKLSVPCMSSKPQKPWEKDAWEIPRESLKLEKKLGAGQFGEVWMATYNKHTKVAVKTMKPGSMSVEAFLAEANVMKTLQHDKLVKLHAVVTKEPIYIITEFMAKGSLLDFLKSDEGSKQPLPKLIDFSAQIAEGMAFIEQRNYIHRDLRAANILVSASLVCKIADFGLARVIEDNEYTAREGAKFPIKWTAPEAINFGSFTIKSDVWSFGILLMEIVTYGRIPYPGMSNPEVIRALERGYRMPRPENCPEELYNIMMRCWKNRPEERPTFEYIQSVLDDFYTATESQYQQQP
Method: Activation of Hck kinase was measured using a validated NADH-coupled assay as described. Briefly, purified Hck kinase (15 micromolar) was first pre-incubated with 500 micromolar ATP and 20 mM MgCl2 for about 30 min on ice to initiate autophosphorylation of Y416. The autophosphorylated product (0.55 micromolar final concentration) was then incubated in Hck Reaction Buffer (20 mM MgCl2, 0.1 mM DTT, 20 μg/mL BSA, 100 mM HEPES (pH 7.5)) for 10 min at room temperature with the indicated concentration of Nef or miniature protein. At this time the remaining assay components (1 mM PEP, 0.2 mM NADH, 6 U pyruvate kinase (Type II from rabbit muscle, Sigma), 6 U L-lactic dehydrogenase (Type II from rabbit muscle, Sigma), 600 micromolar substrate peptide, and 500 micromolar ATP) were added to initiate the reaction (total volume 200 microliters) and the absorbance at 340 nm was monitored every 10 sec for 10 min using a Beckman DU 730 UVN is Spectrophotomer. The activation constant Kact for each ligand was calculated from the initial rate as a function of ligand concentration as previously described, using Eq. 6. Fold activation was calculated by dividing the rate in the presence of ligand by the rate in the absence of ligand.
va=Vact[L]/(Kact±[L]) Equation 6.
In this equation va is velocity measured in the presence of ligand minus the velocity measured in its absence; Vact is the maximal activated velocity minus the velocity measured in the absence of ligand; [L] is the concentration of activator and Kact is concentration of activator at half-maximal activation.

[9] = biological target: T1, c-Src SH3 domain-GST fusion protein; conditions: literature value; read-out: Kd, c-Src SH3 (reported); cited from earlier work

CC(C)C[C@H](NC(=O)[C@H](CCCNC(=N)N)NC(=O)[C@@H]1CCCN1C(=O)[C@H](CCCNC(=N)N)NC(=O)[C@H](CC(N)=O)NC(=O)[C@H](CCCNC(=N)N)NC(=O)[C@@H]1CCCN1C(=O)[C@@H]1CCCN1C(=O)[C@H](CC(C)C)NC(=O)[C@@H]1CCCN1C(=O)[C@@H]1CCCN1C(=O)[C@H](C)N)C(N)=O [Peptide 1] (H-APPLPPRNRPRL-NH2)
Kd [1]: 1.5 ± 0.1 µM
Kd [2]: 0.87 to 2 µM
Kd [3]: 0.87 to 2 µM
Kd [4]: 0.87 to 2 µM
Kd [5]: > 20 µM
Kd [6]: > 20 µM
Kd [7]: > 20 µM
Activity [8]: 33.9 ± 3.2 nmol/s
Fold-Activation ([8]; rate with ligand / rate without ligand): 3 and 3 ± 1
Kd [9]: 1.2 µM

Source: patent publication US20100273722A1, “MODIFIED MINIATURE PROTEINS” (Yale University, priority 2007, published 2010)
